Assay results reported in publication PMC9137726, “Thioredoxin Reductase-Type Ferredoxin: NADP^+ Oxidoreductase of Rhodopseudomonas palustris: Potentiometric Characteristics and Reactions with Nonphysiological Oxidants” (Antioxidants, 2022).

Biological target: T1, RpFNR (R. palustris TrxR-type FNR) (Rhodopseudomonas palustris, UniProt Q6N2U4)
T1 construct: gene RPA3954; domains span residues 2-344
Test: steady-state spectrophotometric NADPH:juglone reductase inhibition
Type: biochemical
Details: read-out: Kis

T1 sequence (Q6N2U4 whole entry, the tested form may be a part): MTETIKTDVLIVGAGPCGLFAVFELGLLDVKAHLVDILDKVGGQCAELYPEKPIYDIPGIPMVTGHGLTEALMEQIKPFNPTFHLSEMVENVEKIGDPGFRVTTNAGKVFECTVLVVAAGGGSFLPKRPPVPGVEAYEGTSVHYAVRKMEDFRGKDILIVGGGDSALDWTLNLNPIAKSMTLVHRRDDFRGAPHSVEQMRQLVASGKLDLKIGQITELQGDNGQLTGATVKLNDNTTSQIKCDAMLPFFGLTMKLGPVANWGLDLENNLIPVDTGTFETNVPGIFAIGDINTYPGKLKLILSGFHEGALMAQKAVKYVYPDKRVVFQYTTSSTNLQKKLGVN

NC(=O)c1ccc[n+]([C@@H]2O[C@H](COP(=O)(O)OP(=O)(O)OC[C@H]3O[C@@H](n4cnc5c(N)ncnc54)[C@H](OP(=O)(O)O)[C@@H]3O)[C@@H](O)[C@H]2O)c1 [NADP^+]
Ki: 150 ± 10 µM
